According to US20260176319A1, “PEPTIDE ANALOGS AND METHODS OF USING THE SAME” (Kallyope, Inc., priority 2024, published 2026):
Read-outs that look alike come from different tables or passages of the source. Starred links: 1 amine or outer side, 2 acyl side, 3 side chain; linkers in the order of their positions; H or OH if unused. Non-standard residues stand in square brackets, D forms with d. Residues, ends and D or L forms follow the SMILES beside them. *: point of attachment. Me3N+(CH2)2O(CH2)2O(CH2)2CO = C[N+](C)(C)CCOCCOCCC(=O)*; Trp(7-Me) = Cc1cccc2c(C[C@H](N)C(=O)O)c[nH]c12; C20 diacid = O=C(O)CCCCCCCCCCCCCCCCCCC(=O)*; d(γGlu) = O=C(O)[C@@H](CCC(=O)[*:2])N[*:1]; C18 diacid = O=C(O)CCCCCCCCCCCCCCCCC(=O)*; γGlu = O=C(O)[C@H](CCC(=O)[*:2])N[*:1]; NMeH = CN[C@@H](Cc1c[nH]cn1)C(=O)O; X1 = O=C(CC1(N[*:1])CCC1)[*:2]; X2 = O=C(CC1(N[*:1])CC1)[*:2]; Nle = CCCC[C@H](N)C(=O)O; β3hA = C[C@H](N)CC(=O)O; Dap = NC[C@H](N)C(=O)O; AEEA = NCCOCCOCC(=O)O; βAla = NCCC(=O)O

Columns and labels:
[1] = Pharmacokinetics after intravenous peptide administration in mice; parameters: species or system C57BL/6 mice; details: in vivo
Method: GPR-10 and peptides were dosed IV at 2 mg/kg as a formulation of 0.4 mg/mL in […]+65% water (pH 6-7).

human GRP receptors = target: T1, human GRP receptors (Homo sapiens, UniProt P30550); test: IP1 GRPR activity: HTRF IP1-Gq assay in U2OS cells stably expressing human GRP receptors; format: cell-based; details: 90 minutes incubation, read-out: hIP1 GRPR EC50
T1 construct: host or cells: U2OS
T1 sequence (P30550 whole entry): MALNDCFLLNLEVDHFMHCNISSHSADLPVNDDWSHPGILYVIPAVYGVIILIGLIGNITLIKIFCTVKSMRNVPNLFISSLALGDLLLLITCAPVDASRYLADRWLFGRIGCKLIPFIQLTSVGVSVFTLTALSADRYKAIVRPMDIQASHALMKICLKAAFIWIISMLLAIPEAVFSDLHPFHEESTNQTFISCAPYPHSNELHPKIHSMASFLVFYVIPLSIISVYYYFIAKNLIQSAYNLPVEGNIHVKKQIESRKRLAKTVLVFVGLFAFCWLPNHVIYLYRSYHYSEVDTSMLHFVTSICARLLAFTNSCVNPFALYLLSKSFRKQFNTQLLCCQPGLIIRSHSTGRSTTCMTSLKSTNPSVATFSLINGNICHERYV
Method: U2OS cells stably expressing human GRP receptors (DiscoverX, #93-0229C3) were cultured according to manufacturer's instructions. Cells were cultured to […], then collected using AccuTase (Innovative Cell Technologies, #AT104). Cells were washed and plated on a poly-D-lysine-coated 384-well plate (ThermoFisher, #A3890401) at a density of 2,500 cells/well in […] assay buffer (AssayComplete Cell Plating 5 Reagent, DiscoverX #93-0563R5), then incubated overnight at 37° C. and 5% C02. The following morning, a homogenous time-resolved fluorescence (HTRF) assay was performed in a 384-well plate format using the IP1-Gq assay kit (Cisbio, 62IPAPEB). Test compounds were made as a stock in DMSO, then serially diluted to generate 10-point dose response curves in IP1 stimulation buffer. Five microliters of the prepared compounds were then added to the plate containing cells and assay buffer in duplicate, and the cells were incubated at 37° C. and 5% CO2 for 90 minutes. Following compound incubation, […] of IP1 lysis/detection buffer (prepared according to manufacturer's instructions) was added to each well, and the plates were incubated at room temperature for 1 hour. HTRF signals were measured using a plate reader (ClarioSTAR), calculating the ratio between emissions at 665 nm and 620 nm (HTRF ratio). HTRF ratio for positive (Max, […]; SEQ ID NO. 45) and negative (Min, DMSO) controls were used to normalize HTRF data and generate values for % activity. EC50 and Max activity values were determined using a standard 4-parameter fit using GraphPad Prism.

[2] = mouse, C57BL/6 mice, IV 2 mg/kg, formulation of 0.4 mg/mL, read-out: T1/2 (converted)
[3] = mouse, C57BL/6 mice, IV 2 mg/kg, formulation of 0.4 mg/mL, read-out: CL

half-life [1, 2] | clearance [1, 3] | EC50 (human GRP receptors) | SMILES | other results
9.4 h | 0.09 mL/min/kg | 6.9 nM | CCCC[C@H](NC(=O)[C@H](CC(C)C)NC(=O)[C@H](Cc1c[nH]cn1)NC(=O)CCNC(=O)[C@@H](NC(=O)[C@H](C)NC(=O)[C@H](Cc1c[nH]c2c(C)cccc12)NC(=O)[C@H](Cc1c[nH]cn1)NC(=O)[C@H](CCC(=O)O)NC(=O)CNC(=O)[C@H](CO)NC(=O)COCCOCCNC(=O)COCCOCCNC(=O)CC[C@H](NC(=O)CC[C@H](NC(=O)CCCCCCCCCCCCCCCCCCC(=O)O)C(=O)O)C(=O)O)C(C)C)C(N)=O [Peptide 255, Eicosanedioyl-γGlu-Glu-OEG-OEG-Ser-Gly-Glu-His-7MeTrp-Ala-Val-β-Ala-His-Leu-Nle-NH2] ({C20 diacid-γGlu-γGlu-AEEA-AEEA}-SGEH[Trp(7-Me)]AV[βAla]HL[Nle]-NH2) | –
9.4 h | 0.09 mL/min/kg | – | CCCC[C@H](NC(=O)[C@H](CC(C)C)NC(=O)[C@H](Cc1c[nH]cn1)NC(=O)CCNC(=O)[C@@H](NC(=O)[C@H](C)NC(=O)[C@H](Cc1c[nH]c2c(C)cccc12)NC(=O)[C@H](Cc1c[nH]cn1)NC(=O)[C@H](CCC(N)=O)NC(=O)[C@H](CO)NC(=O)[C@H](CCC(=O)O)NC(=O)COCCOCCNC(=O)COCCOCCNC(=O)CC[C@H](NC(=O)CC[C@H](NC(=O)CCCCCCCCCCCCCCCCCCC(=O)O)C(=O)O)C(=O)O)C(C)C)C(N)=O [Peptide 257, Eicosanedioyl-γGlu-γGlu-OEG-OEG-Glu-Ser-Gln-His-7MeTrp-Ala-Val-β-Ala-His-Leu-Nle-NH2] ({C20 diacid-γGlu-γGlu-AEEA-AEEA}-ESQH[Trp(7-Me)]AV[βAla]HL[Nle]-NH2) | –
– | – | 6 nM | CCCC[C@H](NC(=O)[C@H](CC(C)C)NC(=O)[C@H](Cc1c[nH]cn1)NC(=O)C[C@H](C)NC(=O)[C@@H](NC(=O)[C@H](C)NC(=O)[C@H](Cc1c[nH]c2c(C)cccc12)NC(=O)[C@H](Cc1c[nH]cn1)NC(=O)[C@H](CC(N)=O)NC(=O)CNC(=O)COCCOCCNC(=O)COCCOCCNC(=O)CC[C@H](NC(=O)CC[C@H](NC(=O)CCCCCCCCCCCCCCCCCCC(=O)O)C(=O)O)C(=O)O)C(C)C)C(N)=O [Peptide 258, Eicosanedioyl-γGlu-γGlu-OEG-OEG-Gly-Asn-His-7MeTrp-Ala-Val-BABA-His-Leu-Nle-NH2] ({C20 diacid-γGlu-γGlu-AEEA-AEEA}-GNH[Trp(7-Me)]AV[β3hA]HL[Nle]-NH2) | –
– | – | 3.8 nM | CCCC[C@H](NC(=O)[C@H](CC(C)C)NC(=O)[C@H](Cc1cnc[nH]1)N(C)C(=O)C[C@H](C)NC(=O)[C@@H](NC(=O)[C@H](C)NC(=O)[C@H](Cc1c[nH]c2c(C)cccc12)NC(=O)[C@H](Cc1c[nH]cn1)NC(=O)[C@H](CCC(N)=O)NC(=O)CNC(=O)COCCOCCNC(=O)COCCOCCNC(=O)CC[C@H](NC(=O)CC[C@H](NC(=O)CCCCCCCCCCCCCCCCCCC(=O)O)C(=O)O)C(=O)O)C(C)C)C(N)=O [Peptide 270, Eicosanedioyl-γGlu-γGlu-OEG-OEG-Gly-Gln-His-7MeTrp-Ala-Val-BABA-NMeHis-Leu-Nle-NH2] ({C20 diacid-γGlu-γGlu-AEEA-AEEA}-GQH[Trp(7-Me)]AV[β3hA][NMeH]L[Nle]-NH2) | –
– | – | 6 nM | CCCC[C@H](NC(=O)[C@H](CC(C)C)NC(=O)[C@H](Cc1c[nH]cn1)NC(=O)CC1(NC(=O)[C@@H](NC(=O)[C@H](C)NC(=O)[C@H](Cc2c[nH]c3ccccc23)NC(=O)[C@H](Cc2c[nH]cn2)NC(=O)[C@H](CCC(N)=O)NC(=O)CNC(=O)COCCOCCNC(=O)COCCOCCNC(=O)CC[C@H](NC(=O)CC[C@H](NC(=O)CCCCCCCCCCCCCCCCCCC(=O)O)C(=O)O)C(=O)O)C(C)C)CC1)C(N)=O [Peptide 272, Eicosanedioyl-γGlu-γGlu-OEG-OEG-Gly-Gln-His-Trp-Ala-Val-ACPA-His-Leu-Nle-NH2] ({C20 diacid-γGlu-γGlu-AEEA-AEEA}-GQHWAV[X2]HL[Nle]-NH2) | –

More lines, now with the values behind:

SMILES | half-life [1, 2] | clearance [1, 3] | EC50 (human GRP receptors) | other results
CSCC[C@H](NC(=O)[C@H](CC(C)C)NC(=O)[C@H](Cc1cnc[nH]1)NC(=O)CNC(=O)[C@@H](NC(=O)[C@H](C)NC(=O)[C@H](Cc1c[nH]c2ccccc12)NC(=O)[C@H](Cc1cnc[nH]1)NC(=O)[C@H](CC(N)=O)NC(=O)CN)C(C)C)C(N)=O [GRP10, G-N-H-W-A-V-G-H-L-M-NH2, reference compound] | – | – | – | clearance ([1]; C57BL/6, mouse, iv, 2 mg/kg): 4540 mL/min/kg; half-life ([1]; C57BL/6, mouse, iv, 2 mg/kg): 0.3 h
CCCC[C@H](NC(=O)[C@H](CC(C)C)NC(=O)[C@H](Cc1c[nH]cn1)NC(=O)[C@@H](C)NC(=O)[C@@H](NC(=O)[C@H](C)NC(=O)[C@H](Cc1c[nH]c2ccccc12)NC(=O)[C@H](Cc1c[nH]cn1)NC(=O)[C@H](CC(N)=O)NC(=O)CN)C(C)C)C(N)=O [Peptide 6, Gly-Asn-His-Trp-Ala-Val-D-Ala-His-Leu-Nle-NH2] | < 0.1 h | – | – | –
CCCCCCCCCCCCCCCC(=O)N[C@H](CCC(=O)NCCOCCOCC(=O)NCCOCCOCC(=O)NCC(=O)N[C@@H](CC(N)=O)C(=O)N[C@@H](Cc1c[nH]cn1)C(=O)N[C@@H](Cc1c[nH]c2ccccc12)C(=O)N[C@@H](C)C(=O)N[C@H](C(=O)NCC(=O)N[C@@H](Cc1c[nH]cn1)C(=O)N[C@@H](CC(C)C)C(=O)N[C@@H](CCSC)C(N)=O)C(C)C)C(=O)O [Peptide 8, Palmitoyl-D-γGlu-OEG-OEG-Gly-Asn-His-Trp-Ala-Val-Gly-His-Leu-Met-NH2] | 2 h | 1.2 mL/min/kg | – | –
CCCC[C@H](NC(=O)[C@H](CC(C)C)NC(=O)[C@H](Cc1c[nH]cn1)NC(=O)[C@@H](C)NC(=O)[C@@H](NC(=O)[C@H](C)NC(=O)[C@H](Cc1c[nH]c2ccccc12)NC(=O)[C@H](Cc1c[nH]cn1)NC(=O)[C@H](CC(N)=O)NC(=O)CNC(=O)COCCOCCNC(=O)COCCOCCNC(=O)CC[C@@H](NC(=O)CCCCCCCCCCCCCCCCC(=O)O)C(=O)O)C(C)C)C(N)=O [Peptide 9, Octadecanedioyl-D-γGlu-OEG-OEG-Gly-Asn-His-Trp-Ala-Val-D-Ala-His-Leu-Nle-NH2] ({C18 diacid-d(γGlu)-AEEA-AEEA}-GNHWAV[dA]HL[Nle]-NH2) | 5.7 h | 0.5 mL/min/kg | – | –
CCCC[C@H](NC(=O)[C@H](CC(C)C)NC(=O)[C@H](Cc1c[nH]cn1)NC(=O)CCNC(=O)[C@@H](NC(=O)[C@H](C)NC(=O)[C@H](Cc1c[nH]c2c(C)cccc12)NC(=O)[C@H](Cc1c[nH]cn1)NC(=O)[C@H](CCCNC(=N)N)NC(=O)CNC(=O)[C@H](CCC(=O)O)NC(=O)COCCOCCNC(=O)COCCOCCNC(=O)CC[C@H](NC(=O)CC[C@H](NC(=O)CCCCCCCCCCCCCCCCCCC(=O)O)C(=O)O)C(=O)O)C(C)C)C(N)=O [Peptide 252, Eicosanedioyl-γGlu-γGlu-OEG-OEG-Glu-Gly-Arg-His-7MeTrp-Ala-Val-β-Ala-His-Leu-Nle-NH2] ({C20 diacid-γGlu-γGlu-AEEA-AEEA}-EGRH[Trp(7-Me)]AV[βAla]HL[Nle]-NH2) | 6.6 h | 0.12 mL/min/kg | 7.5 nM | –
CCCC[C@H](NC(=O)[C@H](CC(C)C)NC(=O)[C@H](Cc1c[nH]cn1)NC(=O)CCNC(=O)[C@@H](NC(=O)[C@H](C)NC(=O)[C@H](Cc1c[nH]c2ccccc12)NC(=O)[C@H](Cc1c[nH]cn1)NC(=O)[C@H](CNC(=O)CCOCCOCC[N+](C)(C)C)NC(=O)CNC(=O)COCCOCCNC(=O)COCCOCCNC(=O)CC[C@H](NC(=O)CCCCCCCCCCCCCCCCCCC(=O)O)C(=O)O)C(C)C)C(N)=O [Peptide 262, Eicosanedioyl-γGlu-OEG-OEG-Gly-Dap(2CE-PEG-TMEA)-His-Trp-Ala-Val-β-Ala-His-Leu-Nle-NH2] ({C20 diacid-γGlu-AEEA-AEEA}-G[Dap](Me3N+(CH2)2O(CH2)2O(CH2)2CO)HWAV[βAla]HL[Nle]-NH2) | – | – | 4 nM | –
CCCC[C@H](NC(=O)[C@H](CC(C)C)NC(=O)[C@H](Cc1c[nH]cn1)NC(=O)CC1(NC(=O)[C@@H](NC(=O)[C@H](C)NC(=O)[C@H](Cc2c[nH]c3ccccc23)NC(=O)[C@H](Cc2c[nH]cn2)NC(=O)[C@H](CCC(N)=O)NC(=O)CNC(=O)COCCOCCNC(=O)COCCOCCNC(=O)CC[C@H](NC(=O)CC[C@H](NC(=O)CCCCCCCCCCCCCCCCCCC(=O)O)C(=O)O)C(=O)O)C(C)C)CCC1)C(N)=O [Peptide 273, Eicosanedioyl-γGlu-Glu-OEG-OEG-Gly-Gln-His-Trp-Ala-Val-ACBA-His-Leu-Nle-NH2] ({C20 diacid-γGlu-γGlu-AEEA-AEEA}-GQHWAV[X1]HL[Nle]-NH2) | – | – | 12.3 nM | –
